Results from PubChem BioAssay AID2060900 (Molecular Pharmacology Branch, DTP, NCI, 2025).

System: 521955-158-R2-J5-PDC complex spheroids, viability
Experiment: Anticancer human tumor 521955-158-R2-J5-PDC patient-derived pancreatic carcinoma cell line growth inhibition [RAS]
Details: for viability, T/C: stronger effect = lower value
Excerpt: RAS pathway inhibitors in Combinations in Complex Spheroids
A high-throughput screen of multi-cell type tumor spheroids was designed to identify active combinations of RAS pathway inhibitors and targeted small molecules. Complex spheroids include a stromal component modeled by human endothelial cells (HUVEC) and fibroblasts modeled by human mesenchymal stem cells (MSCs). The concentration ranges selected for each drug and investigational agent were based upon clinically achievable concentrations if the clinical Cmax of the agent was known.
Compounds. The drugs and investigational agents: abemaciclib (NSC768073), cobimetinib (NSC768068), divarasib (GDC6063, NSC841802), docetaxel (NSC628503), GDC-1971 (RLY-1971, NSC841576), gemcitabine (NSC613327), inavolisib (NSC800729), ipatasertib (NSC767898), KB-0742 (NSC834161), MRTX-1133 (NSC836407), osimertinib (NSC779217), RMC-4630 (NSC839698), RMC-6236 (NSC851965), RMC-6291 (NSC852671), Ro-3306 (NSC812927), sapanisertib (NSC764658), SN-38 (NSC673596), staurosporine (NSC755774), SY5609 (NSC837396), and tovorafenib (DAY101, NSC766906), were obtained from the National Cancer Institute (NCI) Developmental Therapeutics Program Chemical Repository. The FDA-approved anticancer drug set is available from the NCI Developmental Therapeutics Program. […] The stock solutions were prepared in dimethyl sulfoxide (DMSO, Sigma-Aldrich, St. Louis, MO, cat. D2650) at 800-fold the tested concentration and stored at -70 degrees C prior to their use. All drugs and investigational agents were tested over a range starting from a high concentration at or near the clinical Cmax and decreasing in half-log increments. If the clinical Cmax for an agent had not been determined, the highest concentration tested was 10 microM.
Cell Culture. All cells were maintained in an incubator at 37 degrees C and 5% CO2 with 95% humidity. The PDC lines were cultured according to standard operating procedures established by the NCI PDMR. All PDCs were thawed and cultured in Matrigel-coated flasks prepared with a working solution of 1X Ham's F-12 nutrient mix, without supplementation (Invitrogen, Waltham, MA, cat. 11765054), 100 U/mL penicillin-streptomycin (Invitrogen, cat. 15140122), and 2.5% Matrigel (Corning Inc., Corning, NY, cat. 354248) for the first three passages. The 362531-283-R-J2-PDC and 782815-120-R-J1-PDC lines were cultured in 6C/Colon 1B media, which includes advanced DMEM/F-12 (Thermo Fisher Scientific, cat. 12634028), 10 mM HEPES (Thermo Fisher Scientific, cat. 15630080), 1X GlutaMAX supplement (Thermo Fisher Scientific, cat. 35050061), 0.1 mg/mL primocin (InvivoGen, San Diego, CA, cat. ant-pm-2), 10% defined fetal bovine serum, heat inactivated (HyClone Laboratories Inc., Logan, UT, cat. SH30070.03HI), 50% L-WRN conditioned media (ATCC, cat. CRL-3276), 1.25 mM N-Acetyl-L-cysteine (Sigma-Aldrich, cat. A9165), 10 mM nicotinamide (Sigma-Aldrich, cat. N0636), 1X B-27 supplement (Thermo Fisher Scientific, cat. 17504044), 1X N-2 supplement (Thermo Fisher Scientific, cat. 17502048), 50 ng/mL human EGF (Thermo Fisher Scientific, cat. PHG0311), and 10 microM Y-27632 dihydrochloride (Tocris Bioscience, cat. 1254). The K12877-001-R-J1-PDC line was cultured in 6I media, which includes all 6C/Colon 1B media plus 10 ng/mL human FGF-10 (PeproTech, cat. 100-26), 1 ng/mL human FGF-2 (PeproTech, cat. 100-18B), 1 µM prostaglandin E2 (Tocris Bioscience, cat. 2296), […] hydrocortisone (Sigma-Aldrich, cat. H4001), and […] bovine insulin (Sigma-Aldrich, cat. I6634). The K86415-001-R-J1-PDC line was cultured in 6D media, which includes all 6C/Colon 1B media components minus the L-WRN conditioned media. The 485176-168-R4-J1-PDC was cultured in PANC media, which includes all 6C/Colon 1B media plus 100 ng/mL human FGF-10 (PeproTech, cat. 100-26), 500 nM SB-431542 (Selleckchem, cat. S1067), and 10 nM gastrin (Tocris Bioscience, cat. 3006). […]
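Note: compound exposure lasted seven days before the viability read.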
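Throughout, for viability, T/C: spheroids also contain HUVEC endothelial cells and mesenchymal stem cells as stroma.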

`C=CC(=O)Nc1cc(Nc2nccc(-c3cn(C)c4ccccc34)n2)c(OC)cc1N(C)CCN(C)C` + C#Cc1c(F)ccc2cc(O)cc(-c3ncc4c(N5CC6CCC(C5)N6)nc(OCC56CCCN5CC(F)C6)nc4c3F)c12 was tested, and the IC50 (curve of first compound, second compound 0.0316 µM) was 39.2 nM, the IC50 (curve of first compound, second compound 0.1 µM) was 217 nM and the IC50 (curve of first compound, second compound 0.316 µM) was 47.1 nM. The IC50 (curve of first compound, second compound 1 µM) was under 3.16 nM, the IC50 (curve of first compound, second compound 3.16 µM) was under 3.16 nM and the IC50 (curve of first compound, second compound 10 µM) was under 3.16 nM. For the same compound, the viability, T/C (second compound 0.0316 µM, first compound 0.00316 µM) was 65.3%, the viability, T/C (second compound 0.0316 µM, first compound 0.01 µM) was 56% and the viability, T/C (second compound 0.0316 µM, first compound 0.0316 µM) was 52.8%. The viability, T/C (second compound 0.0316 µM, first compound 0.1 µM) was 43.5%, the viability, T/C (second compound 0.0316 µM, first compound 0.316 µM) was 38.3% and the viability, T/C (second compound 0.0316 µM, first compound 1 µM) was 29.6%. The viability, T/C (second compound 0.1 µM, first compound 0.00316 µM) was 46%, the viability, T/C (second compound 0.1 µM, first compound 0.01 µM) was 59.9% and the viability, T/C (second compound 0.1 µM, first compound 0.0316 µM) was 49.7%. For the same compound, the viability, T/C (second compound 0.1 µM, first compound 0.1 µM) was 59.8%, the viability, T/C (second compound 0.1 µM, first compound 0.316 µM) was 46.7% and the viability, T/C (second compound 0.1 µM, first compound 1 µM) was 22.9%. For the same compound, the viability, T/C (second compound 0.316 µM, first compound 0.00316 µM) was 51%, the viability, T/C (second compound 0.316 µM, first compound 0.01 µM) was 58.8% and the viability, T/C (second compound 0.316 µM, first compound 0.0316 µM) was 47.1%. For the same compound, the viability, T/C (second compound 0.316 µM, first compound 0.1 µM) was 48.6%, the viability, T/C (second compound 0.316 µM, first compound 0.316 µM) was 34.5% and the viability, T/C (second compound 0.316 µM, first compound 1 µM) was 22.6%. It also gave a viability, T/C (second compound 1 µM, first compound 0.00316 µM) of 46.8%, a viability, T/C (second compound 1 µM, first compound 0.01 µM) of 48.3% and a viability, T/C (second compound 1 µM, first compound 0.0316 µM) of 51.1%. For the same compound, the viability, T/C (second compound 1 µM, first compound 0.1 µM) was 43.4%, the viability, T/C (second compound 1 µM, first compound 0.316 µM) was 34.4% and the viability, T/C (second compound 1 µM, first compound 1 µM) was 17.8%. For the same compound, the viability, T/C (second compound 3.16 µM, first compound 0.00316 µM) was 43%, the viability, T/C (second compound 3.16 µM, first compound 0.01 µM) was 53.4% and the viability, T/C (second compound 3.16 µM, first compound 0.0316 µM) was 42.5%. The viability, T/C (second compound 3.16 µM, first compound 0.1 µM) was 49.9%, the viability, T/C (second compound 3.16 µM, first compound 0.316 µM) was 27.8% and the viability, T/C (second compound 3.16 µM, first compound 1 µM) was 15%. For the same compound, the viability, T/C (second compound 10 µM, first compound 0.00316 µM) was 32.5%, the viability, T/C (second compound 10 µM, first compound 0.01 µM) was 43.9% and the viability, T/C (second compound 10 µM, first compound 0.0316 µM) was 32.2%. The viability, T/C (second compound 10 µM, first compound 0.1 µM) was 34.2%, the viability, T/C (second compound 10 µM, first compound 0.316 µM) was 26.1% and the viability, T/C (second compound 10 µM, first compound 1 µM) was 3.73%.
With `CC(C)NCC(C(=O)N1CCN(c2ncnc3c2C(C)CC3O)CC1)c1ccc(Cl)cc1` (centres undefined) the viability, T/C (compound 0.0316 µM) was 97.9% [middle of 4 runs], the viability, T/C (compound 0.1 µM) was 99.3% [middle of 4 runs] and the viability, T/C (compound 0.316 µM) was 96% [middle of 4 runs]. For the same compound, the viability, T/C (compound 1 µM) was 60.5% [middle of 4 runs], the viability, T/C (compound 3.16 µM) was 75.7% [middle of 4 runs] and the viability, T/C (compound 10 µM) was 72.5% [middle of 4 runs]. For the same compound, the IC50 (curve of compound) was over 10000 nM.
